# Assays:
# barnyardgrass [1] = assay: Test A pre-/postemergence herbicide test; format: in vivo, Echinochloa crus-galli
# In short: (§1)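 Sandy loam soil given preemergence directed spray; plants at 2 to 10 cm, one- to two-leaf stage, sprayed to runoff postemergence, compounds in non-phytotoxic solvent with surfactant. Injury rated visually versus untreated controls after about ten greenhouse days, 0 (no effect) to 100 (complete control); dash means not tested.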
# large crabgrass [2] = assay: Test A pre-/postemergence herbicide test; format: in vivo, Digitaria sanguinalis
# In short: as §1
# giant foxtail [3] = assay: Test A pre-/postemergence herbicide test; format: in vivo, Setaria faberi
# In short: as §1
# morningglory [4] = assay: Test A pre-/postemergence herbicide test; format: in vivo, Ipomoea spp.
# In short: as §1
# redroot pigweed = assay: Test A pre-/postemergence herbicide test; format: in vivo, Amaranthus retroflexus
# In short: as §1
# velvetleaf [5] = assay: Test A pre-/postemergence herbicide test; format: in vivo, Abutilon theophrasti
# In short: as §1
# barnyardgrass [6] = assay: Test B pre-/postemergence herbicide test; format: in vivo, Echinochloa crus-galli
# In short: (§2)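 Test chemicals in a non-phytotoxic solvent mixture with surfactant were applied preemergence to seeded species and postemergence to plants 2-18 cm tall (1- to 4-leaf stage); rice and barnyardgrass were also tested in a flooded paddy at the 2-leaf stage. Visual rating versus controls after 13-15 days in greenhouse, scale 0 (no effect) to 100 (complete control).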
# Surinam grass = assay: Test B pre-/postemergence herbicide test; format: in vivo, Urochloa decumbens; settings: for Surinam Grass plant response rating: postemergence
# In short: (§3)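 Pre: seeds sown, then sprayed. Post: 1–4-leaf plants (2–18 cm) sprayed at the same time. Paddy: flooded, treated at 2-leaf stage. Formulation: non-phytotoxic solvent with surfactant. Greenhouse 13–15 days; visual 0–100 score relative to controls.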
# cocklebur = assay: Test B pre-/postemergence herbicide test; format: in vivo, Xanthium strumarium
# In short: as §2
# corn = assay: Test B pre-/postemergence herbicide test; format: in vivo, Zea mays; settings: for Corn plant response rating: postemergence
# In short: as §3
# large crabgrass [7] = assay: Test B pre-/postemergence herbicide test; format: in vivo, Digitaria sanguinalis
# In short: as §3
# giant foxtail [8] = assay: Test B pre-/postemergence herbicide test; format: in vivo, Setaria faberi
# In short: as §3
# lambsquarters = assay: Test B pre-/postemergence herbicide test; format: in vivo, Chenopodium album
# In short: as §3
# morningglory [9] = assay: Test B pre-/postemergence herbicide test; format: in vivo, Ipomoea coccinea; settings: for Morningglory plant response rating: postemergence
# In short: as §2
# pigweed = assay: Test B pre-/postemergence herbicide test; format: in vivo, Amaranthus retroflexus
# In short: as §3
# velvetleaf [10] = assay: Test B pre-/postemergence herbicide test; format: in vivo, Abutilon theophrasti
# In short: as §3
# blackgrass = assay: Test B postemergence herbicide test; format: in vivo, Alopecurus myosuroides
# In short: (§4)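 Paddy species grown to the 2-leaf stage under flooding; blackgrass sprayed postemergence at 2–18 cm (1- to 4-leaf stage). Plants kept in a greenhouse for 13 to 15 days, then visually rated against controls on 0 (no effect) to 100 (complete control).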
# wheat = assay: Test B postemergence herbicide test; format: in vivo, Triticum aestivum; set-up: key to Wheat plant response rating: 0 = no effect, 100 = complete control
# In short: (§5)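 Scale 0–100: zero equals no visible effect, 100 complete control, judged by eye relative to controls. Timing: 13 to 15 days in greenhouse post-treatment. Growth stage at spraying: two leaves (paddy) or one to four leaves, 2–18 cm (postemergence).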
# wild oat = assay: Test B postemergence herbicide test; format: in vivo, Avena fatua
# In short: as §5
# rice = assay: Test B flooded paddy test; format: in vivo, Oryza sativa; settings: 1000 g ai/ha, scale 0 to 100 (0 no effect, 100 complete control)
# In short: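 Plants grow to 1- to 4-leaf stage (2–18 cm) for postemergence spraying, or to 2-leaf stage for the paddy test. Formulated compound is applied. Greenhouse holding lasts 13–15 days. Response is scored visually relative to controls, 0 no effect to 100 complete control; a dash means no result.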
# [11] = test system: small flower umbrella sedge; assay: Test B flooded paddy test; format: in vivo, Cyperus difformis; settings: 1000 g ai/ha, scale 0 to 100 (0 no effect, 100 complete control)
# In short: as §4
# ducksalad = assay: Test B flooded paddy test; format: in vivo, Heteranthera limosa; settings: 1000 g ai/ha, scale 0 to 100 (0 no effect, 100 complete control)
# In short: as §4
# barnyardgrass [12] = assay: Test B flooded paddy test; format: in vivo, Echinochloa crus-galli; settings: 1000 g ai/ha, scale 0 to 100 (0 no effect, 100 complete control)
# In short: as §4
# [13] = Postemergence, 500 g ai/ha, 0 to 100 scale, 0 no effect, 100 complete control
# [14] = Postemergence, 2000 g ai/ha, 0 to 100 scale, 0 no effect, 100 complete control
# [15] = Preemergence, 2000 g ai/ha, visual rating, 0 to 100 scale (0 no effect, 100 complete control)
# [16] = preemergence, 500 g ai/ha, visual injury, 0 to 100 scale (0 no effect, 100 complete control)
# [17] = 125 g ai/ha, 0 is no effect, 100 is complete control, preemergence
# [18] = 125 g ai/ha, visual rating, scale 0 (no effect) to 100 (complete control), postemergence
# [19] = 500 g ai/ha, visual rating, 0 = no effect, 100 = complete control, preemergence
# [20] = postemergence, 500 g ai/ha, scale 0 to 100, 0 is no effect, 100 is complete control
# [21] = 125 g ai/ha, visual rating, scale 0 (no effect) to 100 (complete control)
# [22] = 500 g ai/ha, scale 0 to 100, 0 is no effect, 100 is complete control
# [23] = Preemergence, 500 g ai/ha, visual rating, 0 to 100 scale (0 no effect, 100 complete control)
# [24] = Preemergence, 2000 g ai/ha, 0 to 100 scale, 0 no effect, 100 complete control
# [25] = Postemergence, 250 g ai/ha, scale 0 (no effect) to 100 (complete control)
# [26] = postemergence, 62 g ai/ha, scale 0 to 100
smiles,measurement,setting,value
CCNC(=O)c1cccc(NC(=O)c2nn(C3CCCC3)nc2CC)c1 [Compound 356],Barnyardgrass plant response rating,barnyardgrass [1]; [13],25
same,"Plant response rating, Barnyardgrass",barnyardgrass [1]; [14],40
same,Barnyardgrass plant response rating,barnyardgrass [1]; [15],45
same,Barnyardgrass plant response rating,barnyardgrass [1]; [16],5
same,"Crabgrass, Large plant response rating",large crabgrass [2]; [13],10
same,"Plant response rating, Crabgrass, Large",large crabgrass [2]; [14],15
same,"Crabgrass, Large plant response rating",large crabgrass [2]; [15],20
same,"Crabgrass, Large plant response rating",large crabgrass [2]; [16],10
same,"Foxtail, Giant plant response rating",giant foxtail [3]; [13],10
same,"Plant response rating, Foxtail, Giant",giant foxtail [3]; [14],10
same,"Foxtail, Giant plant response rating",giant foxtail [3]; [15],45
same,"Foxtail, Giant plant response rating",giant foxtail [3]; [16],20
same,Morningglory plant response rating,morningglory [4]; [13],10
same,"Plant response rating, Morningglory",morningglory [4]; [14],20
same,Morningglory plant response rating,morningglory [4]; [15],15
same,Morningglory plant response rating,morningglory [4]; [16],5
same,Pigweed plant response rating,redroot pigweed; [13],65
same,"Plant response rating, Pigweed",redroot pigweed; [14],70
same,Pigweed plant response rating,redroot pigweed; [15],80
same,Pigweed plant response rating,redroot pigweed; [16],25
same,Velvetleaf plant response rating,velvetleaf [5]; [13],10
same,"Plant response rating, Velvetleaf",velvetleaf [5]; [14],10
same,Velvetleaf plant response rating,velvetleaf [5]; [15],20
same,Velvetleaf plant response rating,velvetleaf [5]; [16],0
same,"Plant response rating (0 to 100 scale), Barnyardgrass",barnyardgrass [6]; [17],60
same,Barnyardgrass plant response rating,barnyardgrass [6]; [18],0
same,"Plant response rating, Barnyardgrass",barnyardgrass [6]; [19],80
same,Barnyardgrass plant response rating,barnyardgrass [6]; [20],0
same,"Plant response rating (0 to 100 scale), Surinam Grass",Surinam grass; [17],10
same,Surinam Grass plant response rating,Surinam grass; [21],10
same,"Plant response rating, Surinam Grass",Surinam grass; [19],60
same,Surinam Grass plant response rating,Surinam grass; [22],20
same,"Plant response rating (0 to 100 scale), Cocklebur",cocklebur; [17],0
same,"Plant response rating, Cocklebur",cocklebur; [19],20
same,Cocklebur plant response rating,cocklebur; [20],0
same,"Plant response rating (0 to 100 scale), Corn",corn; [17],10
same,Corn plant response rating,corn; [21],0
same,"Plant response rating, Corn",corn; [19],50
same,Corn plant response rating,corn; [22],0
same,"Plant response rating (0 to 100 scale), Crabgrass, Large",large crabgrass [7]; [17],40
same,"Crabgrass, Large plant response rating",large crabgrass [7]; [18],10
same,"Plant response rating, Crabgrass, Large",large crabgrass [7]; [19],90
same,"Crabgrass, Large plant response rating",large crabgrass [7]; [20],30
same,"Plant response rating (0 to 100 scale), Foxtail, Giant",giant foxtail [8]; [17],10
same,"Foxtail, Giant plant response rating",giant foxtail [8]; [18],30
same,"Plant response rating, Foxtail, Giant",giant foxtail [8]; [19],80
same,"Foxtail, Giant plant response rating",giant foxtail [8]; [20],30
same,"Plant response rating (0 to 100 scale), Lambsquarters",lambsquarters; [17],40
same,Lambsquarters plant response rating,lambsquarters; [18],10
same,"Plant response rating, Lambsquarters",lambsquarters; [19],100
same,Lambsquarters plant response rating,lambsquarters; [20],50
same,"Plant response rating (0 to 100 scale), Morningglory",morningglory [9]; [17],0
same,Morningglory plant response rating,morningglory [9]; [21],0
same,"Plant response rating, Morningglory",morningglory [9]; [19],10
same,Morningglory plant response rating,morningglory [9]; [22],10
same,"Plant response rating (0 to 100 scale), Pigweed",pigweed; [17],70
same,Pigweed plant response rating,pigweed; [18],30
same,"Plant response rating, Pigweed",pigweed; [19],100
same,Pigweed plant response rating,pigweed; [20],70
same,"Plant response rating (0 to 100 scale), Velvetleaf",velvetleaf [10]; [17],0
same,Velvetleaf plant response rating,velvetleaf [10]; [20],0
same,Blackgrass plant response rating,blackgrass; [18],0
same,Blackgrass plant response rating,blackgrass; [20],10
same,Wheat plant response rating,wheat; [18],0
same,Wheat plant response rating,wheat; [20],10
same,"Oat, Wild plant response rating",wild oat; [18],0
same,"Oat, Wild plant response rating",wild oat; [20],20
same,Rice plant response rating,rice,50
same,"Sedge, Umbrella plant response rating",[11],70
same,Ducksalad plant response rating,ducksalad,60
same,Barnyardgrass plant response rating,barnyardgrass [12],50
CN1Cc2c(NC(=O)c3cc(C(C)(C)C)nn3C)cccc2C1=O [Compound 54],"Plant response rating, Barnyardgrass",barnyardgrass [1]; [13],10
same,"Plant response rating, Barnyardgrass",barnyardgrass [1]; [14],10
same,Barnyardgrass plant response rating,barnyardgrass [1]; [23],5
same,Barnyardgrass plant response rating,barnyardgrass [1]; [24],25
same,"Plant response rating, Crabgrass, Large",large crabgrass [2]; [13],10
same,"Plant response rating, Crabgrass, Large",large crabgrass [2]; [14],15
same,"Crabgrass, Large plant response rating",large crabgrass [2]; [23],25
same,"Crabgrass, Large plant response rating",large crabgrass [2]; [24],35
same,"Plant response rating, Foxtail, Giant",giant foxtail [3]; [13],10
same,"Plant response rating, Foxtail, Giant",giant foxtail [3]; [14],5
same,"Foxtail, Giant plant response rating",giant foxtail [3]; [23],0
same,"Foxtail, Giant plant response rating",giant foxtail [3]; [24],15
same,"Plant response rating, Morningglory",morningglory [4]; [13],0
same,"Plant response rating, Morningglory",morningglory [4]; [14],10
same,Morningglory plant response rating,morningglory [4]; [23],0
same,Morningglory plant response rating,morningglory [4]; [24],15
same,"Plant response rating, Pigweed",redroot pigweed; [13],20
same,"Plant response rating, Pigweed",redroot pigweed; [14],20
same,Pigweed plant response rating,redroot pigweed; [23],10
same,Pigweed plant response rating,redroot pigweed; [24],65
same,"Plant response rating, Velvetleaf",velvetleaf [5]; [14],5
same,Velvetleaf plant response rating,velvetleaf [5]; [23],0
same,Velvetleaf plant response rating,velvetleaf [5]; [24],0
same,Barnyardgrass plant response rating,barnyardgrass [6]; [25],0
same,Barnyardgrass plant response rating,barnyardgrass [6]; [26],0
same,Surinam Grass plant response rating,"Surinam grass; 62 g ai/ha, scale 0 to 100",0
same,Cocklebur plant response rating,cocklebur; [25],10
same,Cocklebur plant response rating,cocklebur; [26],10
same,Corn plant response rating,"corn; 62 g ai/ha, scale 0 to 100",10
same,"Crabgrass, Large plant response rating",large crabgrass [7]; [25],0
same,"Crabgrass, Large plant response rating",large crabgrass [7]; [26],0
same,"Foxtail, Giant plant response rating",giant foxtail [8]; [25],0
same,"Foxtail, Giant plant response rating",giant foxtail [8]; [26],0
same,Lambsquarters plant response rating,lambsquarters; [25],40
same,Lambsquarters plant response rating,lambsquarters; [26],40
same,Morningglory plant response rating,"morningglory [9]; 62 g ai/ha, scale 0 to 100",10
same,Pigweed plant response rating,pigweed; [25],10
same,Pigweed plant response rating,pigweed; [26],0
same,Velvetleaf plant response rating,velvetleaf [10]; [25],0
same,Velvetleaf plant response rating,velvetleaf [10]; [26],0
same,Blackgrass plant response rating,blackgrass; [25],0
same,Blackgrass plant response rating,blackgrass; [26],0
same,Wheat plant response rating,"wheat; 250 g ai/ha, scale 0 to 100, 0 no effect, 100 complete control, preemergence",0
same,Wheat plant response rating,wheat; [25],0
same,Wheat plant response rating,wheat; [26],0
same,"Oat, Wild plant response rating",wild oat; [25],0
same,"Oat, Wild plant response rating",wild oat; [26],0
same,Rice plant response rating,"rice; visual rating, 13 to 15 days",0
same,"Sedge, Umbrella plant response rating","[11]; visual rating, 13 to 15 days",0
same,Ducksalad plant response rating,"ducksalad; visual rating, 13 to 15 days",0
same,Barnyardgrass plant response rating,"barnyardgrass [12]; visual rating, 13 to 15 days",0

# Reference: US20060069132A1, “Azolecarboxamide herbicides” (priority 2004, published 2006)
